PubChem BioAssay AID330 (DTP/NCI, 2004)
Several values for one entry are separate records, joined by “and”; a condition that tells them apart may be missing. Equal entries are not always repeated. Toxic doses and inconclusive results are not listed. Bridge positions count the residues as written; N and C are the ends. Peptide text beside a SMILES is read from it. I, II: the chains in the order shown.

Tested on: P388 leukemia ip, CD2F1 mice, survival T/C
Assay: NCI In Vivo Anticancer Drug Screen. Data for tumor model P388 Leukemia (intraperitoneal) in CD2F1 (CDF1) mice
Conditions: endpoint: median survival time, higher = longer survival
Summary of the method: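 Mice carrying the transplanted tumor received test compound or vehicle. Survival was recorded in each group, and the value is the treated-group measurement divided by that of the vehicle-treated control group.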

[1] = dose: 50.0 mg/kg/injection, schedule: Q01DX005 (ip), vehicle: Klucel (hydroxypropylcellulose) (HPC)
[2] = dose: 100.0 mg/kg/injection, schedule: Q01DX005 (ip), vehicle: Klucel (hydroxypropylcellulose) (HPC)
[3] = dose: 200.0 mg/kg/injection, schedule: Q01DX005 (ip), vehicle: Klucel (hydroxypropylcellulose) (HPC)
[4] = dose: 6.25 mg/kg/injection, schedule: Q01DX009 (ip), vehicle: water
[5] = dose: 12.5 mg/kg/injection, schedule: Q01DX009 (ip), vehicle: water
[6] = dose: 50.0 mg/kg/injection, schedule: Q01DX009 (ip), vehicle: saline
[7] = dose: 100.0 mg/kg/injection, schedule: Q01DX009 (ip), vehicle: saline
[8] = dose: 200.0 mg/kg/injection, schedule: Q01DX009 (ip), vehicle: saline
[9] = dose: 100.0 mg/kg/injection, schedule: Q04DX002 (ip), vehicle: saline with Tween-80
[10] = dose: 200.0 mg/kg/injection, schedule: Q04DX002 (ip), vehicle: saline with Tween-80
[11] = dose: 400.0 mg/kg/injection, schedule: Q04DX002 (ip), vehicle: saline with Tween-80
[12] = dose: 3.13 mg/kg/injection, schedule: Q01DX009 (ip), vehicle: distilled water + Tween-80
[13] = dose: 6.25 mg/kg/injection, schedule: Q01DX009 (ip), vehicle: distilled water + Tween-80
[14] = dose: 12.5 mg/kg/injection, schedule: Q01DX009 (ip), vehicle: distilled water + Tween-80
[15] = dose: 25.0 mg/kg/injection, schedule: Q01DX009 (ip), vehicle: distilled water + Tween-80
[16] = dose: 3.13 mg/kg/injection, schedule: Q01DX009 (ip), vehicle: saline with Tween-80
[17] = dose: 6.25 mg/kg/injection, schedule: Q01DX009 (ip), vehicle: saline with Tween-80
[18] = dose: 12.5 mg/kg/injection, schedule: Q01DX009 (ip), vehicle: saline with Tween-80
[19] = dose: 50.0 mg/kg/injection, schedule: Q01DX009 (ip), vehicle: saline with Tween-80
[20] = dose: 60.0 mg/kg/injection, schedule: Q01DX005 (ip), vehicle: saline
[21] = dose: 120.0 mg/kg/injection, schedule: Q01DX005 (ip), vehicle: saline
[22] = dose: 240.0 mg/kg/injection, schedule: Q01DX005 (ip), vehicle: saline
[23] = dose: 60.0 mg/kg/injection, schedule: Q01DX005 (ip), vehicle: saline with Tween-80
[24] = dose: 120.0 mg/kg/injection, schedule: Q01DX005 (ip), vehicle: saline with Tween-80
[25] = dose: 50.0 mg/kg/injection, schedule: Q01DX005 (ip), vehicle: saline with Tween-80
[26] = dose: 100.0 mg/kg/injection, schedule: Q01DX005 (ip), vehicle: saline with Tween-80
[27] = dose: 200.0 mg/kg/injection, schedule: Q01DX005 (ip), vehicle: saline with Tween-80

With OC(CCl)Cn1nc2ccccc2n1 (stereo unspecified) the T/C [1] was 96 % of control, the T/C [2] was 105 % of control and the T/C (dose: 100.0 mg/kg/injection, schedule: Q04DX003 (ip), vehicle: Klucel (hydroxypropylcellulose) (HPC)) was 99 % of control. The T/C [3] was 103 % of control, the T/C (dose: 200.0 mg/kg/injection, schedule: Q04DX003 (ip), vehicle: Klucel (hydroxypropylcellulose) (HPC)) was 99 % of control and the T/C (dose: 400.0 mg/kg/injection, schedule: Q04DX003 (ip), vehicle: Klucel (hydroxypropylcellulose) (HPC)) was 93 % of control.

COP(=O)(OC)C(=[N+]=[N-])c1ccccc1 was tested, and the T/C [4] was 98 % of control, the T/C [5] was 106 % of control and the T/C (dose: 50.0 mg/kg/injection, schedule: Q01DX009 (ip), vehicle: water) was 93 % of control. The T/C (dose: 100.0 mg/kg/injection, schedule: Q01DX009 (ip), vehicle: water) was 98 % of control and the T/C (dose: 200.0 mg/kg/injection, schedule: Q01DX009 (ip), vehicle: water) was 90 % of control.

CN1CC1c1cc2ccccc2c2ccccc12 (stereo unspecified) was tested, and the T/C (dose: 100.0 mg/kg/injection, schedule: Q01DX001 (ip), vehicle: suspension in saline) was 107 % of control, the T/C (dose: 200.0 mg/kg/injection, schedule: Q01DX001 (ip), vehicle: suspension in saline) was 98 % of control and the T/C (dose: 400.0 mg/kg/injection, schedule: Q01DX001 (ip), vehicle: suspension in saline) was 101 % of control.

For CCC(=O)NC, the T/C (dose: 25.0 mg/kg/injection, schedule: Q01DX009 (ip), vehicle: saline) was 97 % of control, the T/C [6] was 97 % of control and the T/C [7] was 106 % of control. The T/C [8] was 107 % of control.

With CC(C)(O)c1ccccc1[S+]1OC(C)(C)c2ccccc21 (stereo unspecified) the T/C [9] was 109 % of control, the T/C [10] was 112 % of control and the T/C [11] was 109 % of control.

With COC(=O)c1nc(=S)[nH]c(C(=O)OC)c1C(=O)c1ccc([N+](=O)[O-])cc1 the T/C (dose: 60.0 mg/kg/injection, schedule: Q01DX005 (ip), vehicle: Klucel (hydroxypropylcellulose) (HPC)) was 101 % of control, the T/C (dose: 120.0 mg/kg/injection, schedule: Q01DX005 (ip), vehicle: Klucel (hydroxypropylcellulose) (HPC)) was 95 % of control and the T/C (dose: 240.0 mg/kg/injection, schedule: Q01DX005 (ip), vehicle: Klucel (hydroxypropylcellulose) (HPC)) was 91 % of control.

In the case of CNC(=O)OCC1=C(COC(=O)NC)C2OC1C(C(=O)OC)=C2c1ccc(Cl)cc1 (stereo unspecified), the T/C (dose: 1.56 mg/kg/injection, schedule: Q01DX009 (ip), vehicle: distilled water + Tween-80) was 100 % of control, the T/C [12] was 92 % of control and the T/C [13] was 108 % of control. For the same molecule, the T/C [14] was 90 % of control and 94 % of control, the T/C [15] was 88 % of control and the T/C (dose: 50.0 mg/kg/injection, schedule: Q01DX009 (ip), vehicle: distilled water + Tween-80) was 88 % of control. The T/C (dose: 100.0 mg/kg/injection, schedule: Q01DX009 (ip), vehicle: distilled water + Tween-80) was 88 % of control and the T/C (dose: 200.0 mg/kg/injection, schedule: Q01DX009 (ip), vehicle: distilled water + Tween-80) was 101 % of control.

ClCCN(Cc1ccccc1)Cc1ccccc1 was tested, and the T/C [16] was 104 % of control, the T/C [17] was 119 % of control and the T/C [18] was 123 % of control.

O=C1c2ccccc2C(=O)N1S(=O)(=O)C/C=C/CCl was tested, and the T/C [18] was 94 % of control, the T/C (dose: 25.0 mg/kg/injection, schedule: Q01DX009 (ip), vehicle: saline with Tween-80) was 97 % of control and the T/C [19] was 105 % of control. The T/C [6] was 110 % of control, the T/C [7] was 103 % of control and the T/C [8] was 108 % of control.

For NC(Cc1cnc[nH]1)C(=O)NC(Cc1ccc(O)cc1)C(=O)O (stereo not drawn) (H-His-Tyr-OH; configuration not given here), the T/C [20] was 100 % of control, the T/C [21] was 101 % of control and the T/C [22] was 100 % of control.

Cc1nnc(C)s1 was tested, and the T/C (dose: 50.0 mg/kg/injection, schedule: Q01DX009 (ip), vehicle: Klucel (hydroxypropylcellulose) (HPC)) was 102 % of control and 106 % of control and 98 % of control, the T/C (dose: 100.0 mg/kg/injection, schedule: Q01DX009 (ip), vehicle: Klucel (hydroxypropylcellulose) (HPC)) was 114 % of control and 96 % of control and 97 % of control and the T/C (dose: 200.0 mg/kg/injection, schedule: Q01DX009 (ip), vehicle: Klucel (hydroxypropylcellulose) (HPC)) was 101 % of control and 106 % of control. The T/C (dose: 600.0 mg/kg/injection, schedule: Q01DX009 (ip), vehicle: Klucel (hydroxypropylcellulose) (HPC)) was 106 % of control.

In the case of CC(NC(=O)C(N)CSSCC(N)C(=O)NC(C)C(=O)O)C(=O)O (stereo not drawn) (I: H-Cys-Ala-OH / II: H-Cys-Ala-OH; disulfide I:1-II:1; configuration not given here), the T/C [1] was 100 % of control, the T/C [2] was 104 % of control and the T/C [3] was 110 % of control.

For c1ccc2cc3n[se]nc3cc2c1, the T/C [23] was 100 % of control and the T/C [24] was 90 % of control.

For c1ccc(-c2[nH]c3ccccc3c2-c2c(-c3ccccc3)[nH]c3ccccc23)cc1, the T/C [6] was 100 % of control, the T/C [7] was 96 % of control and the T/C [8] was 98 % of control.

In the case of CC(C)NC(=O)OCc1c(COC(=O)NC(C)C)c(-c2ccc(F)cc2F)n2c1CCC2, the T/C [12] was 168 % of control, the T/C [13] was 158 % of control and 162 % of control and the T/C [14] was 174 % of control and 180 % of control. For the same molecule, the T/C [15] was 99 % of control.

With Cc1[nH]c2ccc(N(C)C)cc2c(=O)c1CNCc1ccccc1 the T/C (dose: 1.56 mg/kg/injection, schedule: Q01DX009 (ip), vehicle: saline with Tween-80) was 114 % of control, the T/C [16] was 107 % of control and the T/C [17] was 103 % of control and 96 % of control.

In the case of N[C@@]1(C(F)(F)F)N[C@](N)(C(F)(F)F)C(F)(F)C(F)(F)C1(F)F, the T/C (dose: 6.25 mg/kg/injection, schedule: Q01DX005 (ip), vehicle: Klucel (hydroxypropylcellulose) (HPC)) was 102 % of control and the T/C (dose: 12.5 mg/kg/injection, schedule: Q01DX005 (ip), vehicle: Klucel (hydroxypropylcellulose) (HPC)) was 95 % of control.

O=[N+]([O-])c1ccc(CS(=O)(=O)OCCCl)cc1 was tested, and the T/C [25] was 98 % of control, the T/C [26] was 98 % of control and the T/C [27] was 94 % of control.

With Nc1n[n+](-c2ccc(Cl)cc2)no1 the T/C (dose: 3.13 mg/kg/injection, schedule: Q01DX009 (ip), vehicle: water) was 108 % of control, the T/C [4] was 102 % of control and 124 % of control and the T/C [5] was 124 % of control. For the same molecule, the T/C (dose: 25.0 mg/kg/injection, schedule: Q01DX009 (ip), vehicle: water) was 155 % of control.

In the case of CSC(C(=O)O)c1cc(-c2c(Cl)cccc2Cl)no1 (stereo unspecified), the T/C [25] was 104 % of control, the T/C [26] was 105 % of control and the T/C [27] was 107 % of control.

For COc1nc(NC2OCC(O)C(O)C2O)c(Cl)c(=O)n1C (stereo unspecified), the T/C [23] was 93 % of control, the T/C [24] was 90 % of control and the T/C (dose: 240.0 mg/kg/injection, schedule: Q01DX005 (ip), vehicle: saline with Tween-80) was 100 % of control.

With C[C@@H]1C[C@H](C)OC(CCl)O1 (stereo partly specified) the T/C [20] was 100 % of control, the T/C [21] was 102 % of control and the T/C [22] was 98 % of control.

In the case of COc1ccc(NC(=O)C(c2ccccc2)c2ccccc2)cc1, the T/C (dose: 100.0 mg/kg/injection, schedule: Q04DX003 (ip), vehicle: saline with Tween-80) was 90 % of control, the T/C (dose: 200.0 mg/kg/injection, schedule: Q04DX003 (ip), vehicle: saline with Tween-80) was 95 % of control and the T/C (dose: 400.0 mg/kg/injection, schedule: Q04DX003 (ip), vehicle: saline with Tween-80) was 100 % of control.

For O=C(O)c1cc(Br)cc(SSc2cc(Br)cc(C(=O)O)c2O)c1O, the T/C [19] was 96 % of control.

O=C1C(CCl)(CCl)CCC12CN=C(Cl)C2 (stereo unspecified) was tested, and the T/C [25] was 100 % of control, the T/C [26] was 100 % of control and the T/C [27] was 106 % of control.

In the case of CCCCCC1CCCC2NC(=O)CCC12 (stereo unspecified), the T/C [9] was 104 % of control, the T/C [10] was 97 % of control and the T/C [11] was 89 % of control.
